Data taken from patent US6730666B1, “Pharmaceutical compositions comprising porphyrins and some novel porphyrin derivatives” (Yeda Research and Development Co. Ltd., priority 1998, dated 2004).
Entries after “also recorded” stand apart in the source; their conditions may differ.

How the values were obtained:
FGFR-3 = target: T1, FGFR-3 (Homo sapiens, UniProt P22607); experiment: Binding of 125I-FGF9 to immobilized soluble FGFR-3 (FR-3-AP); conditions: FIG. 11
T1 construct: soluble FGFR-3 ectodomain alkaline phosphatase fusion protein (FR-3-AP); made in house; host or cells: NIH 3T3 cells (conditioned medium)
T1 sequence (P22607 23-375 limits assumed): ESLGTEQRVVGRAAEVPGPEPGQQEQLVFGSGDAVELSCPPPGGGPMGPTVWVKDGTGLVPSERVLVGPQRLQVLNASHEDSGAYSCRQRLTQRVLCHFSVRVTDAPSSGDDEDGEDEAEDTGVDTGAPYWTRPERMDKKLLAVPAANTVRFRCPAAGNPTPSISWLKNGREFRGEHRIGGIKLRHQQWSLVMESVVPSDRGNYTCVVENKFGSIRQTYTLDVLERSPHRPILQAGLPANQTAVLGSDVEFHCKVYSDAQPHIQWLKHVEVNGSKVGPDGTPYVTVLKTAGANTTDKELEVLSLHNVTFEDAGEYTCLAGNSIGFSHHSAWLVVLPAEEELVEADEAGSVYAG
Protocol: Incubations were performed in the presence of 100 ng/ml heparin and increasing concentrations of porphyrins. […] Results represent the mean value in one of at least two independent experiments.
(iii) Binding of ^125I-bFGF or ^125I-FGF9 to s luble FGFR-1 or FGFR-3. Conditioned medium from NIH 3T3 cells secreting soluble FRAP or FGFR-3 FR-3-AP, was incubated for 45 min at room temperature with rabbit anti-human placental AP antibodies (generated as described in Ornitz et al, 1991) prebound to agarose-protein A beads Pierce). The FGFR-1 or FGFR-3-coupled beads were washed three times with 1 ml HNTG and incubated with 2 ng/ml of ^125I-FGF, 1 μg/ml of heparin and porphyrin/corrole compound at different concentrations for 1 h at room temperature. High affinity-bound ^125I-bFGF was determined by counting of the samples in a γ-counter.
Thus, the compounds were tested for their capacity to inhibit binding of a soluble FGFR-3 ectodomain alkaline phosphatase fusion protein (FR-3-AP) to FGF-9, utilizing a cell free system, similar to the one described for FGFR-1 in Example 1 above, and measuring the binding of radiolabeled ^125I-FGF-9 to soluble FGFR-3.

soluble FGFR-1 (FRAP) = target: T2, soluble FGFR-1 (FRAP) (Mus musculus, UniProt P16092); experiment: Binding of 125I-bFGF to immobilized soluble FGFR-1 (FRAP), cell-free
T2 sequence (P16092 22-376 limits assumed): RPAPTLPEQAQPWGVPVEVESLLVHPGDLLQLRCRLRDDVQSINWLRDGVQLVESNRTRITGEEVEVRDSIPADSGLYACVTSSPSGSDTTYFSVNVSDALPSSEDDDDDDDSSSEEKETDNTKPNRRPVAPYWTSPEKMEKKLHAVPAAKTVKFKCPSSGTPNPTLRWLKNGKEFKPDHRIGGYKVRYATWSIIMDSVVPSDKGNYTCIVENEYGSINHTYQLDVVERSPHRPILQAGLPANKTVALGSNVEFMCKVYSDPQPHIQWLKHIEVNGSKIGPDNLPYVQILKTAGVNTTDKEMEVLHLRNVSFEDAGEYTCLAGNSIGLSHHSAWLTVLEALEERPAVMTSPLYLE
Excerpt: First we utilized a cell-free system, measuring the binding of radiolabeled bFGF to a dimeric soluble FGFR-1 fused to alkaline phosphatase. […] As a: second experimental model, we used CHO cells deficient in heparan sulfate and genetically engineered to express FGFR-1 (Methods, section (iv)).

FGFR-1 = FGFR-1 (Mus musculus, UniProt P16092); experiment: Binding of 125I-bFGF to CHO cells expressing FGFR-1; conditions: read-out: Cellular receptor binding (IC50); binding of FGF to FGFR; Methods section (iv)
Chain of FGFR-1 (P16092 22-822): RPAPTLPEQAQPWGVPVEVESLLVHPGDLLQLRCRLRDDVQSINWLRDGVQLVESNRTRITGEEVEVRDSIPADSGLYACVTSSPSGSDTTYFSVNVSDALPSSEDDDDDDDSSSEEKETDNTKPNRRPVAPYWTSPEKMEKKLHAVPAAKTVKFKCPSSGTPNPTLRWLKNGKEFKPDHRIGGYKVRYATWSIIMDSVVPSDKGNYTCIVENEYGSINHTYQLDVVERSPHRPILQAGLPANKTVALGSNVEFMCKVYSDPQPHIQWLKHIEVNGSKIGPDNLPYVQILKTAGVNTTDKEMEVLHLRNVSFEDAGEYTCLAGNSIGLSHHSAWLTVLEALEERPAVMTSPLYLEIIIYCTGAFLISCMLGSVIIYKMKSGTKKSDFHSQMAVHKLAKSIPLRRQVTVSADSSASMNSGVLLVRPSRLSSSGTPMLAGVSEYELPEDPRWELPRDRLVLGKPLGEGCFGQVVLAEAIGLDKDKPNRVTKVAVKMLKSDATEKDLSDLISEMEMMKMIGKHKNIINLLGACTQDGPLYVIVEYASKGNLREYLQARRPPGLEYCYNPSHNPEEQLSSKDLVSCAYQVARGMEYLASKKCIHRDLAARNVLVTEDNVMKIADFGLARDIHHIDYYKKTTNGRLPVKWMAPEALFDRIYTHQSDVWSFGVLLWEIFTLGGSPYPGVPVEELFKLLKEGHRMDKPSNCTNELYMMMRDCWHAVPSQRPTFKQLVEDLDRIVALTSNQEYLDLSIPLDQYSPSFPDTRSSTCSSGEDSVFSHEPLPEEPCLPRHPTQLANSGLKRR
Protocol: The binding medium was discarded and the cells were washed once with ice-cold DMEM/BSA and twice with cold PBS (pH 7.5) containing 1.6M NaCl. […] Non-specific binding was determined in the presence of a 100-fold excess of unlabeled bFGF.
First we utilized a cell-free system, measuring the binding of radiolabeled bFGF to a dimeric soluble FGFR-1 fused to alkaline phosphatase. The soluble FRAP was immobilized using an anti-alkaline phosphatase antibody prebound to agarose-protein A beads (see Methods, section (iii)). As a: second experimental model, we used CHO cells deficient in heparan sulfate and genetically engineered to express FGFR-1 (Methods, section (iv)).

FGF receptor = FGF receptor (Mus musculus, UniProt P16092); experiment: In vitro inhibition of bFGF binding (assay format not stated)
Chain of FGF receptor (P16092 22-822): as above

[1] = tested on: Lewis lung carcinoma (LLC) lung metastasis; experiment: Lewis lung carcinoma lung metastasis model; format: in vivo, C57 black mice; design: Inhibitory activity in vivo, LLC tumor model (as % of total inhibition): reference not given here
Protocol: (vii) Lewis lung carcinoma tumor assay. Murine Lewis lung carcinoma (LLC) D122 cells (1×10^6 cells/[…] PBS) were injected into the foot pads of 10-week old C57 black mice (O'Reilly et al, 1994). Twenty five μg/g of body mass of porphyrin or corrole compound dissolved in PBS were injected IP twice a week to the treated group, and tumor size was measured periodically in order to follow primary tumor formation. In order to evaluate inhibition of lung metastasis by porphyrin or corrole compound, the primary tumors were allowed to develop over a period of six weeks to a volume of approximately 8 mm^3; after which the tumors were removed and metastases were allowed to develop for four weeks. During this time the treated group received 25 μg/g of body mass of porphyrin or corrole compound IP twice a week. Subsequently the mice were sacrificed, dissected and the lungs removed and photographed. The extent of lung metastasis was measured by weighing the lungs.
After establishing the capacity of P1 to inhibit primary tumor growth, the capacity of P1 to inhibit lung metastasis formation was measured as described in Methods, section (vi). Mice were injected with LLC cells (200,000 cells per mouse) into the foot pad and primary tumors were allowed to develop over a period of 3 to 4 weeks to a volume of approximately 8 mm^3. Subsequently, primary tumors were removed through amputation and lung metasases were allowed to develop for four weeks before the mice were sacrificed. The extent of lung metastasis at this point was examined by gross morphological examination and by determining the gain in lung weight. […] In order to quantitate the results from these experiments, the lungs from all mice were weighed and evaluated for the extent of metastatic growth.

| SMILES | Relative potency in FGF-9/FGFR-3 soluble receptor assay, in words (FGFR-3) | IC50 (soluble FGFR-1 (FRAP); read-out: Soluble receptor binding (IC50), binding of FGF to FGFR, Methods section (iii)) [nM] | IC50 (FGFR-1) [nM] | Inhibition of bFGF binding to immobilized FRAP, in words (soluble FGFR-1 (FRAP); FIG. 8B) | Activity in vitro in words (inhibition of bFGF binding) (FGF receptor) | Inhibition of lung metastasis in LLC model, in words ([1]; 25 μg/g of body mass IP) | Inhibitory activity in vivo, LLC tumor model (as % of total inhibition) ([1]; 25 μg/gram, LLC murine tumor model, lung metastasis) [%] |
| --- | --- | --- | --- | --- | --- | --- | --- |
| C[N+](C)(C)c1c(F)c(F)c(-c2c3nc(c(-c4c(F)c(F)c([N+](C)(C)C)c(F)c4F)c4ccc([nH]4)c(-c4c(F)c(F)c([N+](C)(C)C)c(F)c4F)c4nc(c(-c5c(F)c(F)c([N+](C)(C)C)c(F)c5F)c5ccc2[nH]5)C=C4)C=C3)c(F)c1F.O=S(=O)([O-])C(F)(F)F.O=S(=O)([O-])C(F)(F)F.O=S(=O)([O-])C(F)(F)F.O=S(=O)([O-])C(F)(F)F [Compound P15, 5,10,15,20-Tetrakis(2,3,5,6-tetrafluoro-4-trimethyl-ammonio-phenyl)-21H,23H-methyl-porphine tetra-trifluoromethylsulfonate] | more potent | 80 | 120 | – | – | – | – |
| C[n+]1ccccc1-c1c(F)c(F)c(-c2c3nc(c(-c4c(F)c(F)c(-c5cccc[n+]5C)c(F)c4F)c4ccc([nH]4)c(-c4c(F)c(F)c(-c5cccc[n+]5C)c(F)c4F)c4nc(c(-c5c(F)c(F)c(-c6cccc[n+]6C)c(F)c5F)c5ccc2[nH]5)C=C4)C=C3)c(F)c1F [Compound P20, 5,10,15,20-Tetrakis[4-(N-methyl-2-pyridylium) 2,3,5,6-tetrafluoro-phenyl]-21H,23H-porphine tetraiodide] | – | – | – | inhibit bFGF binding in vitro | significantly more active than P1 | highly active in vivo; also recorded: more active than P1 | 150 |
